{"source": "patent US10335455B2", "about": "“Method for prevention or treatment of intractable inflammatory bowel disease” (University of Miyazaki, priority 2011, dated 2019)", "key": {"[1]": {"test_system": "subjects including normal individuals", "assay": "Safety tests of continuous intravenous injection of adrenomedullin in subjects including normal individuals", "type": "in vivo, human", "procedure": "(§1) The safety of continuous intravenous injection of adrenomedullin for 90 minutes was confirmed in 28 subjects including normal individuals. […] In the present Examples, 2 weeks of the animal test period was set to the continuous administration period."}, "[2]": {"test_system": "various disease model animals", "assay": "Continuous intravenous injection of adrenomedullin for 1 month in disease model animals", "type": "in vivo", "settings": "continuous intravenous injection for 1 month", "procedure": "as §1"}, "[3]": {"test_system": "colitis model", "settings": "Gonzalez et al.; intraperitoneal administration of 12 μg/kg body weight; cited from earlier work"}, "[4]": {"test_system": "DSS enteritis (diffuse colitis)", "assay": "Administration in DSS enteritis (diffuse colitis) model", "type": "in vivo", "settings": "2.5 μg/kg body weight"}, "[5]": {"test_system": "large bowel artificial ulcer model", "assay": "Enema administration to a large bowel artificial ulcer model", "type": "in vivo", "settings": "5.0 μg/kg body weight"}, "[6]": {"test_system": "inflammatory bowel disease model", "type": "in vivo", "source_text": "Thus, in the adrenomedullin administration, a low dose to an extent not greatly affecting circulatory dynamics is preferably used; a high dose rather makes it worse."}, "[7]": {"test_system": "patients with steroid-resistant or steroid-dependent ulcerative colitis", "assay": "Continuous intravenous administration of adrenomedullin to patients with intractable ulcerative colitis", "type": "in vivo, human", "settings": "for DAI (Average): 6 cases, immediately before administration 9.0 ± 1.4; for Endoscopic findings in the large bowel: maintenance of remission: continuation treatment azathioprine 50 mg/day"}}, "note": "“Also recorded” adds a separate entry of the source.", "data": [{"smiles": "CC[C@H](C)[C@H](NC(=O)[C@H](CCC(N)=O)NC(=O)[C@H](Cc1c[nH]cn1)NC(=O)[C@H](C)NC(=O)[C@H](CC(C)C)NC(=O)[C@H](CCCCN)NC(=O)[C@H](CCC(N)=O)NC(=O)[C@@H](NC(=O)[C@@H](NC(=O)[C@@H]1CSSC[C@H](NC(=O)CNC(=O)[C@H](Cc2ccccc2)NC(=O)[C@H](CO)NC(=O)[C@H](CCCNC(=N)N)NC(=O)[C@H](CC(C)C)NC(=O)CNC(=O)[C@H](CCC(N)=O)NC(=O)[C@H](Cc2ccccc2)NC(=O)[C@H](CC(N)=O)NC(=O)[C@H](CC(N)=O)NC(=O)[C@H](CCSC)NC(=O)[C@H](CO)NC(=O)[C@H](CCC(N)=O)NC(=O)[C@H](CCCNC(=N)N)NC(=O)[C@@H](N)Cc2ccc(O)cc2)C(=O)N[C@@H](CCCNC(=N)N)C(=O)N[C@@H](Cc2ccccc2)C(=O)NCC(=O)N[C@@H]([C@@H](C)O)C(=O)N1)[C@@H](C)O)C(C)C)C(=O)N[C@@H](Cc1ccc(O)cc1)C(=O)N[C@@H](CCC(N)=O)C(=O)N[C@@H](Cc1ccccc1)C(=O)N[C@H](C(=O)N[C@@H](CC(=O)O)C(=O)N[C@@H](CCCCN)C(=O)N[C@@H](CC(=O)O)C(=O)N[C@@H](CCCCN)C(=O)N[C@@H](CC(=O)O)C(=O)N[C@@H](CC(N)=O)C(=O)N[C@H](C(=O)N[C@@H](C)C(=O)N1CCC[C@H]1C(=O)N[C@@H](CCCNC(=N)N)C(=O)N[C@@H](CO)C(=O)N[C@@H](CCCCN)C(=O)N[C@H](C(=O)N[C@@H](CO)C(=O)N1CCC[C@H]1C(=O)N[C@@H](CCC(N)=O)C(=O)NCC(=O)N[C@@H](Cc1ccc(O)cc1)C(N)=O)[C@@H](C)CC)C(C)C)[C@@H](C)O", "note": "[adrenomedullin, synthetic human adrenomedullin]", "values": [{"measurement": "Blood pressure reduction", "setting": "[1]; 2.5 pmol/kg body weight/min, continuous administration for 27 hours", "value": "more than 20 mmHg"}, {"measurement": "Safety of continuous intravenous injection", "setting": "[1]; 90 minutes, 28 subjects including normal individuals", "value": "confirmed"}, {"measurement": "Adverse events", "setting": "[1]; continuous intravenous injection for 27 hours, 12 subjects", "value": "no adverse event was observed"}, {"measurement": "Safety and efficacy", "setting": "[2]", "value": "confirming the safety and efficacy thereof"}, {"measurement": "Efficacy in colitis model", "setting": "[3]", "value": "has shown the efficacy"}, {"measurement": "Effect in DSS enteritis (diffuse colitis)", "setting": "[4]", "value": "a high effect has also been observed"}, {"measurement": "Effect in large bowel artificial ulcer model", "setting": "[5]", "value": "highest"}, {"measurement": "Curve of adrenomedullin dose versus anti-inflammatory/mucosa-repairing effect", "setting": "[6]; animal experiments", "value": "anti-bell shape"}, {"measurement": "Blood pressure reduction at the optimal (low) dose", "setting": "[6]; in vivo", "value": "proved not to cause blood pressure reduction"}, {"measurement": "DAI (Average)", "setting": "[7]; 12 weeks after start of administration, p 0.0001", "value": "1.0 ± 1.15"}, {"measurement": "DAI (Average)", "setting": "[7]; 14 days after start of administration, 1.5 pmol/kg body weight/min i.v., 8 hours/day, p 0.0028", "value": "5.0 ± 2.4"}, {"measurement": "Mucosal regeneration in the affected areas", "setting": "[7]; all 6 cases", "value": "prominent mucosal regeneration was also confirmed"}, {"measurement": "Remission maintenance", "setting": "[7]; all 6 cases", "value": "remission was maintained"}, {"measurement": "Treatment effects", "setting": "[7]; all 6 cases of adrenomedullin administration", "value": "treatment effects were confirmed in all cases"}, {"measurement": "DAI improvement at 14 days after adrenomedullin administration", "setting": "[7]; in 4 cases of 6", "value": "≥ 4", "unit": "points"}, {"measurement": "Blood pressure reduction", "setting": "[7]; one patient, 1.5 pmol/kg body weight/min during 14 days of administration", "value": "≤ 10", "unit": "mmHg"}, {"measurement": "Variation in the blood concentration of adrenomedullin immediately after administration", "setting": "[7]; one patient, 1.5 pmol/kg body weight/min i.v.", "value": "smaller than variation due to inflammation"}, {"measurement": "Endoscopic findings in the large bowel: maintenance of remission", "setting": "[7]; one patient, 3 months after adrenomedullin administration", "value": "confirmed the maintenance of the remission; also recorded: Remission maintenance was confirmed"}, {"measurement": "Endoscopic findings in the large bowel: maintenance of remission", "setting": "[7]; one patient, 12 months after adrenomedullin administration", "value": "also confirmed the maintenance of the remission"}, {"measurement": "Endoscopic findings in the large bowel", "setting": "[7]; one patient, after 14 days of continuous administration, 1.5 pmol/kg body weight/min, 8 hours/day", "value": "remission due to adrenomedullin was confirmed; also recorded: marked proliferation of regenerated epithelium (left) and scarring of shallow wide ulcer (right)"}, {"measurement": "Symptoms considered to be side effects", "setting": "[7]; one patient, during 14 days of administration", "value": "not observed"}]}]}
